In one assay the target is KCNQ1 (Homo sapiens, UniProt P51787). Nature of the assay: TEVC of homomeric KCNQ1 expressed in Xenopus oocytes. Conditions: dose response, ΔV0.5act. Type of assay: cell-based. From the text: We generated cRNA transcripts encoding human KCNQ1, KCNQ2, KCNQ3, KCNQ4, KCNQ5 or GLRA1 (NM_001146040) (GenScript, Piscataway, NJ, USA) by in vitro transcription using the T7 polymerase mMessage mMachine kit (Thermo Fisher Scientific), after vector linearization, from cDNA sub-cloned into plasmids incorporating Xenopus laevis β-globin 5′ and 3′ UTRs flanking the coding region to enhance translation and cRNA stability. We quantified cRNA by spectrophotometry. We generated mutant KCNQ2 and KCNQ3 cDNAs by site-directed mutagenesis using a QuikChange kit (Stratagene, San Diego, CA) and prepared the corresponding cRNAs as above. We injected defolliculated stage V and VI Xenopus laevis oocytes (Ecocyte Bioscience, Austin, TX and Xenoocyte, Dexter, MI) with KCNQ channel α subunit (5-20 ng) or GLRA1 (20 ng) cRNAs. We incubated the oocytes at 16 °C in Barth’s saline solution (Ecocyte Bioscience) containing penicillin and streptomycin, with daily washing, for 2–5 days prior to two-electrode voltage-clamp (TEVC) recording.
We performed TEVC at room temperature using an OC-725C amplifier (Warner Instruments, Hamden, CT) and pClamp10 software (Molecular Devices, Sunnyvale, CA) 2–5 days after cRNA injection as described in the section above. For recording, oocytes were placed in a small-volume oocyte bath (Warner) and viewed them with a dissection microscope. Chemicals were sourced from Sigma, Matrix Scientific and Santa Cruz. […] All stock solutions were diluted in bath solution on the day of experiments. KCNQ2/3 channel activation was screened for using either 30 µM or 100 µM concentrations of each of the six compounds, then dose responses were conducted as appropriate. […] Currents were recorded in response to voltage pulses between −120 or −80 mV and + 40 mV at 20 mV intervals from a holding potential of −80 mV, to yield current-voltage relationships, current magnitude, and for quantifying activation rate. We analyzed data using Clampfit (Molecular Devices) and Graphpad Prism software (GraphPad, San Diego, CA, USA); values are stated as mean ± SEM. […]

The target in another assay is KCNQ3*-W265L (Homo sapiens, UniProt O43525, A315T/W265L). As to the kind of experiment: TEVC of homomeric KCNQ3*-W265L. Type of assay: cell-based. From the text: (§1) We generated cRNA transcripts encoding human KCNQ1, KCNQ2, KCNQ3, KCNQ4, KCNQ5 or GLRA1 (NM_001146040) (GenScript, Piscataway, NJ, USA) by in vitro transcription using the T7 polymerase mMessage mMachine kit (Thermo Fisher Scientific), after vector linearization, from cDNA sub-cloned into plasmids incorporating Xenopus laevis β-globin 5′ and 3′ UTRs flanking the coding region to enhance translation and cRNA stability. We quantified cRNA by spectrophotometry. We generated mutant KCNQ2 and KCNQ3 cDNAs by site-directed mutagenesis using a QuikChange kit (Stratagene, San Diego, CA) and prepared the corresponding cRNAs as above. […]
(§2) We performed TEVC at room temperature using an OC-725C amplifier (Warner Instruments, Hamden, CT) and pClamp10 software (Molecular Devices, Sunnyvale, CA) 2–5 days after cRNA injection as described in the section above. […] Currents were recorded in response to voltage pulses between −120 or −80 mV and + 40 mV at 20 mV intervals from a holding potential of −80 mV, to yield current-voltage relationships, current magnitude, and for quantifying activation rate. We analyzed data using Clampfit (Molecular Devices) and Graphpad Prism software (GraphPad, San Diego, CA, USA); values are stated as mean ± SEM. […]

The target in another assay is KCNQ3* (Homo sapiens, UniProt O43525, A315T). As to the kind of experiment: [3H]GABA binding and competition, oocytes expressing KCNQ3*. The conditions noted are these: 100 µM.
A further assay deals with T1, KCNQ3*-R242A (Homo sapiens, UniProt O43525, A315T/R242A).
T1 sequence (O43525 1-872 R242A/A315T): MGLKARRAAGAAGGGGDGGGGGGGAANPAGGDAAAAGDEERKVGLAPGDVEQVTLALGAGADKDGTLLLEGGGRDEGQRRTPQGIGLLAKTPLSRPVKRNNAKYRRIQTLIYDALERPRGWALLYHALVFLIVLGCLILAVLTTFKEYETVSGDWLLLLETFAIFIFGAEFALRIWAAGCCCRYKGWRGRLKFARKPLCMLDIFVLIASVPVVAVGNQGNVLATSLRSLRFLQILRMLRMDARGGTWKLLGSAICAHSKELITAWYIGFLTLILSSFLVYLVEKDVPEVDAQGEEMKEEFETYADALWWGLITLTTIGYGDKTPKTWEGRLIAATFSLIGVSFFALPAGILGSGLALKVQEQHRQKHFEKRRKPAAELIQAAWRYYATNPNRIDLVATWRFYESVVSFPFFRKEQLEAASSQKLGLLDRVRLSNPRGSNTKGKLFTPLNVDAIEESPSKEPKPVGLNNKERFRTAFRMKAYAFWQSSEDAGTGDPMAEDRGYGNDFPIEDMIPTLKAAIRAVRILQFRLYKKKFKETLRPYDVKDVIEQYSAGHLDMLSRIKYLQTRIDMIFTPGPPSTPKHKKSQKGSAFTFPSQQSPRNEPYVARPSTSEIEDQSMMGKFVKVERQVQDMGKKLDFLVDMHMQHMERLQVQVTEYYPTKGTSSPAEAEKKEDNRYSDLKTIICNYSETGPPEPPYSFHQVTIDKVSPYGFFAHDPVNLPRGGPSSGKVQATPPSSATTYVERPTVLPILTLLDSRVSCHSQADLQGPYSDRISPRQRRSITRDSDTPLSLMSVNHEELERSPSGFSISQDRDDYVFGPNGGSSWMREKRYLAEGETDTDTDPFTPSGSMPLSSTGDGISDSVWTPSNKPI
Nature of the assay: TEVC of homomeric KCNQ3*-R242A. It is filed as cell-based. Conditions: 100 µM.
From the text: as §1, §2

Consider `CS(=O)(=O)N(CC(=O)O)c1cccc(F)c1` [3FMSG], for which the “effects on KCNQ1” value at KCNQ1 is given as “negligible or much less potent effects”. Moreover, at KCNQ3*-W265L, the “maximal efficacy, KCNQ3*-W265L versus KCNQ3*” value is listed as “reduced by half” and the “reduction of sensitivity by the W265L mutation versus KCNQ3*” value is given as 44 fold. Also, the “competition of GABA binding to KCNQ3*” value on KCNQ3* is listed as “able to compete out GABA binding”. Also, the “effect on nonfunctional KCNQ3*-R242A” value on KCNQ3*-R242A is “awakened neither by 3FMSG nor retigabine”.
